Measurements published in patent publication US8039668B2, “Naphthalene-based inhibitors of anti-apoptotic proteins” (Burnham Institute for Medical Research, priority 2008, dated 2011).
Read-outs that look alike come from different tables or passages of the source.

Columns and labels:
[1] = target: Bcl-2 (Homo sapiens, UniProt P10415); assay: Competitive fluorescence polarization assay (FPA), Bim BH3 peptide; assay type: binding
[2] = test system: H460 human lung cell line; assay: Cell viability, ATP-LITE assay; assay type: cell-based; settings: ATP-LITE assay, read-out: EC50 H460
How it was run: (§1)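 Human cancer lines were seeded at 2000 (H460, H1299), 3000 (PC3) or 10,000 (RS11846) cells/well in F12 or RPMI1640 with 5% FBS. Compounds were added in 0.1% DMSO 24 h after seeding. Viability was read by ATP-LITE luminescence after 72 h and normalized to DMSO controls.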

[3] = Liver microsomal stability; assay type: in vitro ADME, rat; settings: Table 6; rat liver microsomes, 1 h
Description: Liver Microsomal Stability.

[4] = test system: human lymphoma RS11846 cell line; assay: Apoptosis, Annexin V-FITC and propidium iodide assay; assay type: cell-based; settings: Table 3; Annexin V-FITC and propidium iodide assay; heading: EC50 RS11846; read-out: EC50 RS11846
[5] = Chemical stability of solid compounds at room temperature (HPLC, LCMS); settings: in air, Apogossypol in the absence of ascorbic acid
Description: The stability of compound was monitored using a combination of HPLC and LCMS.

[6] = Plasma stability; assay type: in vitro ADME, rat
Method: Plasma Stability. A 20 μL aliquot of a 10 mM solution in DMSO of the test compound was added to 2.0 mL of heparinized rat plasma (Lampire, P1-150N) to obtain a 100 μM final solution. The mixture was incubated for 1 h at 37.5° C. Aliquots of 100 μL were taken (0, 30 min, 1 h) and diluted with 200 μL of MeOH containing internal standard.

[7] = test system: BP3 human B-cell lymphoma cell line; assay: Annexin V-FITC and propidium iodide assay; assay type: cell-based; settings: Annexin V-FITC and propidium iodide assay, read-out: EC50 BP3
[8] = PAMPA cell membrane permeability; assay type: in vitro ADME; settings: Table 11; Low/Medium, not defined
Description: PAMPA is parallel artificial membrane permeation assay.

[9] = test system: Balb/c mice; assay: Oral toxicity of gossypol vs apogossypol in normal mice; assay type: in vivo, mouse; settings: daily dosing studies in mice
Method: Compounds or vehicle control were dosed 15 times over 3 weeks, giving compounds daily for 5 consecutive days (Monday-Friday), resting on weekends.
Spleens were removed and weighed.
Whole blood (250 μl) was collected in EDTA-coated glass tubes (purple top; MICROTAINER Brand Tube with EDTA, Catalogue #365973, Becton, Dickinson and Company, New Jersey 07417-1885) via either cardiac puncture or severing the brachial artery of anesthetized mice. After thorough mixing, specimens were analyzed using a VetScan HM2 (Abaxis Inc., Union City, Calif. 94587) hematology analyzer, measuring white blood cell count (WBC), red blood cell count (RBC), platelet (PLT) count, leukocyte differential (including % lymphocyte, % monocyte and % granulocyte), hematocrit (Ht), and hemoglobin (Hb).
(Eppendorf Centrifuge 5415C) for 2 minutes to separate serum from cells and fibrin clot. The resulting serum specimens were analyzed using an automated blood chemistry analyzer (“COBAS MIRA Classic”; Roche, Indianapolis, Ind. 46250-0414) to measure alanine aminotransferase (ALT) and aspartate aminotransferase AST), blood urea nitrogen (BUN), and […].

[10] = test system: B6Bcl-2 transgenic mice
How it was run: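 B6 line BCL-2 transgenic mice (human BCL-2 fused to IgH locus/enhancer, Balb/c background) sacrificed 24 h post-treatment by lethal i.p. Avertin. Spleen removed and weighed, fixed 3 days in z-FIX for H&E and TUNEL histology.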

[11] = test system: BCL-2 transgenic mice; assay: Oral efficacy study in BCL-2 transgenic mice, QDx5 for 3 weeks; settings: low dose 0.06 mmol/kg oral
Method: The volume of administration was 10 ml/kg, i.e., typically 0.2 mL per 20 gm mouse. […] Age-matched, sex-matched mice were typically dosed 5 times weekly, using a regiment of daily dosing 5 consecutive days (Monday through Friday), followed by resting for 2 days, before resuming dosing. […] At conclusion of treatments, mice were sacrificed via intra-peritoneal (i.p.) injection of 0.7 ml of Avertin and whole blood was collected into Yellow-Top Serum Separator tubes (Becton Dickinson Vacutainer Systems Becton Dickinson and Company, Franklin Lakes, N.J. 07417-1885). Spleens were removed and weighed.
Age-matched and sex-matched BCL-2 transgenic mice were used for efficacy studies. BCL-2 transgenic mice spontaneously developed low grade B-cell lymphoma as characterized by splenomegaly, as a function of time. In BCL-2 transgenic mice, the disease progression can be divided into two stages; at the first stage, the disease is characterized by splenomegaly as a result of expansion of B-cells in spleen due to over-expressed BCL-2 in B6 mice, and at the second stage, another genetic hit(s) may strike, resulting in disseminated lymphoma as characterized by bulky lymphadenopathy as well as splenomegaly.
In this study, BCL-2 transgenic mice at the first stage were used for this efficacy study. […] At conclusion of treatment, BCL-2 transgenic mice were sacrificed via intraperitoneal injection of 0.7 ml of avertin (anesthetic solution) and spleen was removed and weighed. Splenocytes were isolated by the use of mouse erythrocyte lysing kit (RD Systems). Total splenocyte count was determined by trypane blue exclusion assays. % B-cell count was determined by FACS analysis after staining cells with CD-5, a B-cell marker.

[12] = test system: PC3ML cells; assay: Cell viability, ATP-LITE assay; assay type: cell-based, human; settings: Table 3; ATP-LITE assay; heading: EC50 PC3ML; read-out: EC50 PC3ML
How it was run: as §1

[13] = target: T1, Bfl-1 (Homo sapiens, UniProt Q16548); assay: Competitive fluorescence polarization assay (FPA); assay type: binding
T1 sequence (Q16548 1-175): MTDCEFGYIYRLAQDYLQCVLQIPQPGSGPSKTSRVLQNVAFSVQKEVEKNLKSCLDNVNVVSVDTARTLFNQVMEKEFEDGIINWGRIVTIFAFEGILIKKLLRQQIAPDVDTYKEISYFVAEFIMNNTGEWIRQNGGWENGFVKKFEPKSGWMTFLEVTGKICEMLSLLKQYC

[14] = test system: H460 cell line; settings: studied by other groups; cited from earlier work
[15] = test system: HeLa cells; assay: HeLa cells viability assay; assay type: cell-based; settings: Homo sapiens, Table 12
Method: Relative numbers of viable cells was determined by XTT assay. Briefly, in a 96-well plate, we added 50 μl of a mixture of 1 mg/ml of XTT (2,3-bis(2-methoxy-4-nitro-5-sulfophenyl)-5-[(phenylamino)carbonyl]-2H-tetrazolium hydroxide) (Polysciences, Washington, Pa.) containing 0.025 mM PMS (phenazine methosulfate) to each well. The 96-well plates were reincubated for an additional 4 hours to allow for XTT formazan production. Then, the contents of each plate were mixed and optical densities were determined at a wavelength of 450 nm (OD450). Net OD450 was determined after subtracting OD450 of blank wells. […] Immunoblot analysis of BCL-XL was accomplished as previously described.

Sequence of Bcl-2 (P10415 whole entry): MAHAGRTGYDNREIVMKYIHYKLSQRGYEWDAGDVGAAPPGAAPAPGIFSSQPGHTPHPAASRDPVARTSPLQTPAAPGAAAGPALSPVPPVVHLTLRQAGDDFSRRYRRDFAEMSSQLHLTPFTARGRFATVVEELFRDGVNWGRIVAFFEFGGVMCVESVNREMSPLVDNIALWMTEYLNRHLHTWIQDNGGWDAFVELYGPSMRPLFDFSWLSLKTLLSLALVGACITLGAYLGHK

Cc1cc2c(C(C)C)c(O)c(O)cc2c(O)c1-c1c(C)cc2c(C(C)C)c(O)c(O)cc2c1O [Apogossypol, 5,5′-diisopropyl-3,3′-dimethyl-2,2′-binaphthyl-1,1′,6,6′,7,7′-hexanol, reference compound]
IC50 [1]: 4.3 µM | EC50 [2]: 3.5 µM | EC50 ([2]; Table 3, heading: EC50 H460): 3.5 µM | Microsomal Stability (T = 1 h) [3]: 64% | EC50 [4]: 5 µM | degraded after 60 days at room temperature [5]: ~80% | degraded after 1 hour incubation in rat plasma ([6]; 1 hour): 47% | Plasma stability (T = 1 h) ([6]; Table 6, rat plasma, 1 h): 53% | EC50 [7]: 4.7 µM | EC50 ([7]; Table 3, heading: EC50 BP3): 4.7 µM | Cell Permeability [8]: Low | tolerated doses, times higher than gossypol [9]: 2-4 | Tox ([10]; Bcl-2 transgenic mouse, single ip injection 72 μmol/kg): 0 | percentage of maximum reduction in spleen weight (maximal biological activity) ([10]; single ip 72 μmol/kg, maximum shrinkage no more than 50%): 40% | shrinkage of spleen [11]: induced shrinkage of spleen to a significant extent | tolerability [11]: well tolerated | EC50 [12]: 10.4 µM | IC50 [13]: > 10 µM

COC1=CC(c2cc3ccccc3[nH]2)=N/C1=C\c1[nH]c(C)cc1C [GX15-070]
IC50 [14]: 3.85 µM

O=c1c(O)cccc2cc(O)c(O)c(O)c12 [Purpurogallin]
IC50 [15]: 6.5 µM
